Data on 3 molecules can be found in patent US20140271634A1, “COMBINATIONS OF A MEK INHIBITOR COMPOUND WITH AN HER3/EGFR INHIBITOR COMPOUND AND METHODS OF USE” (The Regents of the University of California, priority 2013, published 2014).

Read-outs that look alike come from different tables or passages of the source.

Experiment [1] concerns KRAS-Mutant DLD-1 Colorectal Adenocarcinoma Tumor Xenografts. Nature of the experiment: DLD-1 colorectal xenograft combination study (Example 7). The format is in vivo, mice. On the procedure: (§1) A combination study of MEHD7945A and cobimetinib was conducted in the KRAS-mutant colorectal xenograft models LS180 and DLD-1. Both of these models were selected because of their KRAS-mutant status and their EGFR and HER3 expression. Cobimetinib was administered as an aqueous solution orally at […] once daily for 21 days. MEHD7945A was administered IV once a week until Day 21 was reached. Tumor sizes and body weights were recorded twice weekly over the course of the study. Mice were promptly euthanized when tumor volume exceeded 2000 mm3 or if body weight loss was 20% of their starting weight.
(§2) To appropriately analyze the repeated measurement of tumor volumes from the same animals over time, a mixed-modeling approach was used (Pinheiro et al. 2009). This approach addressed both repeated measurements and modest drop-out rates due to non-treatment-related termination of animals before study end. This analysis was used to determine tumor growth inhibition as a percentage of vehicle (% TGI) or time to tumor progression (TTP).
After randomization, DLD-1 tumor bearing mice were given PO gavage doses of 0 (vehicle), 3, or 10 mg/kg cobimetinib (expressed as free-base equivalents) QD for 21 days. Mice received 25 mg/kg of MEHD7945A via IV bolus injection QW for a total of three injections. In groups that received both agents, cobimetinib was administered first and immediately followed by MEHD7945A.

Experiment [2] has as its system HCT115 (KRAS^G13D). Nature of the experiment: Proliferation, HCT115 cells. The class given is cell-based.
Experiment [3] deals with LS180 Colorectal Adenocarcinoma Tumor Xenografts. The experiment is described as follows: LS180 colorectal xenograft combination study (Example 7). The format is in vivo, mice. As to the method:
as §1, §2
After randomization, LS180 tumor bearing mice were given oral (PO) gavage doses of 0 (vehicle), 3, or 10 mg/kg cobimetinib (expressed as free-base equivalents) once a day (QD) for 21 days. Mice were given 25 mg/kg of MEHD7945A via intravenous (IV) bolus injection once per week (QW) for a total of three injections. In groups that received both agents, cobimetinib was administered first and immediately followed by MEHD7945A.

The test system of experiment [4] is LS180 cells. The experiment is described as follows: TGFα-stimulated LS180 cells, immunoblot of pAKT and pERK1/2. The class given is cell-based. The settings on record: 10 μg/mL MEHD7945A, 0.05 μM cobimetinib or combination 1 hour before 5 nM TGFα 12 minutes. An excerpt:
(§3) Inhibition of the RAS/RAF/MEK and the PI3K/AKT pathways were explored in vitro using MEHD7945A and cobimetinib or the combination of both agents in KRAS-mutant colorectal cell lines. Two KRAS mutant colorectal cell lines were selected to assess the potential upregulation of phosphorylated AKT (pAKT) by cobimetinib due to the inhibition of negative feedback loops. Upregulation of pAKT upon MEK inhibition has been described in several cell systems (Mirzoeva et al. 2009; Diep et al 2011; Turke et al. 2012). Moreover, we investigated if the addition of MEHD7945A to cobimetinib treatment could enhance pAKT and pERK1/2 inhibition. LS180 cells were pretreated with 10 μg/mL MEHD7945A, 0.05 μM cobimetinib, or the combination thereof for one hour before stimulation with 5 nM TGFα for twelve minutes. DLD-1 cells were pretreated with 10 μg/mL MEHD7945A, 0.025 μM cobimetinib, or the combination thereof for 1 hour before stimulation with 5 nM TGFα for 12 minutes. Cell lysates were immunoblotted to detect phosphorylation of EGFR (pEGFR1068), phosphorylation of AKT (pAKTS473), and phosphorylation of ERK1/2 (pERK1/2 T202/Y204), and total protein levels of EGFR, AKT, or ERK1/2. The results are shown in FIG. 9 (left panel=LS180 cells, right panel=DLD-1 cells) (EGFR=epidermal growth factor receptor; ERK=extracellular signal regulated kinase; p=phosphorylated; TGFα=transforming growth factor α) […]
Background: A western blot detects proteins with antibodies after separation by electrophoresis.

The test system of experiment [5] is A375 (BRAF^V600E). The experiment is described as follows: Proliferation, A375 cells. The class given is cell-based.
Experiment [6] has as its system BxPC3 Ductal Pancreatic Xenograft Tumors. The experiment is described as follows: Pancreatic BxPC3 xenograft combination study (Example 8). The class given is in vivo, mice.
Description: as §2
After randomization, mice were given PO gavage doses of 0 (vehicle), 1, or 5 mg/kg cobimetinib (expressed as free-base equivalents) QD for 21 days. Mice were given 25 mg/kg of MEHD7945A via IV bolus injection QW for a total of three injections. In groups that received both agents, cobimetinib was administered first and immediately followed by MEHD7945A.
Time to tumor progression (TTP) to twice (2×) initial tumor volume was monitored for each group following 21 days of dosing (see FIG. 13C). […] In FIG. 13 CI=confidence interval; CR=complete response (100% decrease in tumor volume); HB#8=histidine buffer; MCT=0.5% (w/v) methylcellulose, 0.2% (w/v) polysorbate 80; NA=not achieved; PR=partial response (50-99% decrease in tumor volume); TTP=time to tumor progression to twice (2×) or five times (5×) the initial tumor volume represents the group average in days.

For experiment [7], the system named is DLD-1 cells. The experiment is described as follows: TGFα-stimulated DLD-1 cells, immunoblot of pAKT and pERK1/2. The format is cell-based. To be noted: 10 μg/mL MEHD7945A, 0.025 μM cobimetinib or combination 1 hour before 5 nM TGFα 12 minutes.
Description: as §3

Experiment [8] has as its system tumor cells bearing activating B-RAF mutations. The experiment is described as follows: Growth of tumor cells bearing activating B-RAF mutations. The format is cell-based. To be noted: FIG. 5. An excerpt: (§4) In one embodiment, the MEK inhibitor of the combination therapy is either GDC-0973 or GDC-0623. […] FIG. 5. […] FIG. 6.
The test system of experiment [9] is tumor cells bearing activating Ras mutations. Nature of the experiment: Growth of tumor cells bearing activating Ras mutations. The format is cell-based. To be noted: FIG. 6.
Description: as §4

In experiment [10] the target is T1, pHER3 (Tyr1289) (Homo sapiens, UniProt P21860).
T1 construct: endogenous in cells; host or cells: MCF-7
The experiment is described as follows: NRG-stimulated MCF-7 cells, immunoblot of pHER3. The format is cell-based. The settings on record: 0.5 nM NRG for 10 min. As to the method: (§5) The assays were performed as follows. […] FIG. 2A.

The subject of experiment [11] is pAKT (Ser473). The experiment is described as follows: NRG-stimulated MCF-7 cells, immunoblot of pAKT. The format is cell-based. To be noted: 0.5 nM NRG for 10 min. On the procedure: as §5
Experiment [12] concerns the target T2, EGFR (Homo sapiens, UniProt P00533). Nature of the experiment: Betacellulin- and amphiregulin-induced EGFR phosphorylation. The format is cell-based.
The subject of experiment [13] is FaDu cells. Nature of the experiment: FaDu xenograft, head and neck squamous cell carcinoma model. To be noted: FaDu tumors in CB17 SCID mice, 25 mg/kg intraperitoneally weekly, 2× loading dose, four treatments. The format is in vivo. On the procedure:
MEHD7945A, a commercially available anti-EGFR antibody, and an anti-HER3 antibody were tested in mice with established tumors derived from Fadu cells (ATCC HTB-43, Manassas, Va.) 5×10^6 FaDu cells were inoculated subcutaneously in CB17 SCID mice. Animals with similarly sized tumors were randomized into treatment cohorts (n=9/group) as follows: Vehicle (MEHD7945A formulation buffer), anti-EGFR antibody (25 mg/kg), anti-HER3 antibody (50 mg/kg), and MEHD7945A (25 mg/kg). Treatments were administered intraperitoneally, beginning with a 2× loading dose (50 or 100 mg/kg respectively) on the day of randomization and continuing weekly for a total of four treatments.

In experiment [14] the test system is pERK1/2 (Thr202/Tyr204). Nature of the experiment: NRG-stimulated MCF-7 cells, immunoblot of pERK1/2. The settings on record: 0.5 nM NRG for 10 min. The class given is cell-based. On the procedure: as §5
Experiment [15] concerns ERK1/2 and AKT pathways. The settings on record: A431 and BxPC3 cells.
In experiment [16] the target is T2, EGFR. To be noted: cited from earlier work.
The target in experiment [17] is T3, phosphorylated EGFR (Homo sapiens, UniProt P00533).
T3 construct: expressed in transfected cells; host or cells: EGFR-NR6
Nature of the experiment: TGF-a-stimulated EGFR-NR6 cells, immunoblot of phosphorylated EGFR. The class given is cell-based. The settings on record: 1 hr pretreatment, 5 nM TGF-a for 10 min.
Description: The assays were performed as follows. […] Cell lysates were subjected to immunoblotting to detect, pERK1/2 (Thr202/Tyr204), total EGFR, and phosphorylated EGFR. Since EGFR-NR6 cells only express EGFR all potential phosphorylation sites of EGFR were detected using a pTyr antibody.

Experiment [18] concerns pERK1/2 (Thr202/Tyr204). To be noted: EGFR-NR6 cells, 1 hr pretreatment, 5 nM TGF-a for 10 min. On the procedure: The assays were performed as follows. MCF-7 cells treated with indicated concentrations of MEHD7945A or anti-HER3 were stimulated with 0.5 nM NRG for 10 min. Cell lysates were immunoblotted to detect pHER3 (Tyr1289), pAKT (Ser473), pERK1/2 (Thr202/Tyr204), and total HER3. FIG. 2A. […] Cell lysates were subjected to immunoblotting to detect, pERK1/2 (Thr202/Tyr204), total EGFR, and phosphorylated EGFR. Since EGFR-NR6 cells only express EGFR all potential phosphorylation sites of EGFR were detected using a pTyr antibody.

In experiment [19] the target is HER3-ECD (Homo sapiens, UniProt P21860). To be noted: soluble competitor 0.02-20 μg/ml.
Setting [20] is: cobimetinib 3 mg/kg PO QD 21 days.
Where [21] appears, read: cobimetinib 10 mg/kg PO QD 21 days.
The mark [22] stands for this setting: MEHD7945A 25 mg/kg IV QW, three injections.

In the case of `O=C(c1ccc(F)c(F)c1Nc1ccc(I)cc1F)N1CC(O)([C@@H]2CCCCN2)C1` [GDC-0973, cobimetinib], the TGI in [1] (setting [20]) worked out at 39%; in experiment [1] (setting [21]), 62%; in experiment [3] (setting [20]) it was 28%; in experiment [3] (setting [21]) it was 63%; in [6] (cobimetinib 1 mg/kg PO QD 21 days), 88%; in [6] (cobimetinib 5 mg/kg PO QD 21 days) it was 109%. Further, the EC50 (as a rule, the midpoint of the concentration-response curve) in experiment [2] was 520 nM; in [5], 5 nM. Moreover, the “phosphorylation of AKT (pAKTS473)” value in experiment [4] and in experiment [7] was “increased phosphorylation of AKT” throughout. Besides, the “phosphorylation of ERK1/2 (pERK1/2 T202/Y204)” value in experiment [4] and in experiment [7] was “partial inhibition” in each case. Also, the “TTP 2× (time to tumor progression to twice initial tumor volume)” value was 22 days in [6] (cobimetinib 1 mg/kg) and 33 days in experiment [6] (cobimetinib 5 mg/kg). In addition, the “inhibiting the growth of tumor cells bearing activating B-RAF mutations” value in experiment [8] was “more activity”.
As for `O=C(NOCCO)c1ccc2cncn2c1Nc1ccc(I)cc1F` [GDC-0623], the EC50 stood at 42 nM in experiment [2] and 7 nM in [5]. Besides, the “inhibiting the growth of tumor cells bearing activating Ras mutations” value in experiment [9] is on record as “more activity”.

B1: MEHD7945A: dual-action antibody which comprises two identical antigen binding domains, each of which specifically binds to both HER3 and EGFR (antibody, V domains shown)
VH: EVQLVESGGGLVQPGGSLRLSCAASGFTLSGDWIHWVRQAPGKGLEWVGEISAAGGYTDYADSVKGRFTISADTSKNTAYLQMNSLRAEDTAVYYCARESRVSFEAAMDYWGQGTLVTVSS
VL: DIQMTQSPSSLSASVGDRVTITCRASQNIATDVAWYQQKPGKAPKLLIYSASFLYSGVPSRFSGSGSGTDFTLTISSLQPEDFATYYCQQSEPEPYTFGQGTKVEIKR
Consider B1, for which the figures for the TGI in experiment [1] (setting [22]), in experiment [3] (setting [22]) and in [6] (setting [22]) were 62%, 44% and 107%, respectively. Also, the “IC50, phosphorylation of HER3” value in experiment [10] was determined as 0.05 µg/mL. Also, in experiment [11], the “IC50, phosphorylation of AKT” value came out at 0.19 µg/mL. In addition, in experiment [12], the “betacellulin- and amphiregulin-induced EGFR phosphorylation” value is “inhibited”. The “inhibition of tumor growth” value in experiment [13] was “more effective in inhibiting tumor growth than either an anti-EGFR specific or an anti-HER3 specific antibody”. Also, the “TTP 2× (time to tumor progression to twice initial tumor volume)” value in [6] (MEHD7945A 25 mg/kg) is 39.5 days. Besides, the results for the “IC50, phosphorylation of ERK1/2” value in experiment [14] and in experiment [18] were 1.13 µg/mL and 0.16 µg/mL, respectively. Also, the “inhibition of ERK1/2 and AKT pathways” value in experiment [15] was “as potently as the combination of anti-HER3 and cetuximab”. Moreover, in [16], the Kd (commonly the constant that tells how readily two partners part at equilibrium) is about 1.9 nM. The “IC50, phosphorylation of EGFR” value in experiment [17] was 0.03 µg/mL. Moreover, the “binding to immobilized HER3-ECD with increasing amounts of EGFR-ECD” value in experiment [19] is “reduced in a dose-dependent manner”.
